“Also recorded” adds a separate entry of the source. Values belong to the compound of their own block, whether it stands above or below them.
Key:
[1] = system: esterase from porcine liver; experiment: Prodrug conversion assay in FaSSIF with added esterase activity; assay type: in vitro ADME; conditions: esterase 20 IU/mL, 10 μM, 37 °C, 4 h; in words
Method: BEX was purchased from LC Laboratories (Woburn, MA, USA). RA (all-trans), Intralipid®, esterase from porcine liver, sodium taurocholate (NaTc), NaCl, NaF and lecithin were obtained from Sigma (Gillingham, UK). Rat plasma was purchased from Sera Laboratories (West Sussex, UK). Thiazolyl blue tetrazolium bromide (MTT), sesame oil, polyethylene glycol 400 (PEG400) and all solvents (HPLC grade or higher) were purchased from Fisher Scientific (Loughborough, UK).
The prodrugs were tested for their stability and conversion into their corresponding active drug using fasted state simulated intestinal fluid (FaSSIF) with added esterase enzyme activity (20 IU/mL), rat plasma, and postprandial rat lymph. The FaSSIF was prepared as previously described in the literature. The medium was pre-heated to 37 °C prior to the assay for 5 min. […] When the stability of the artificial emulsion-associated prodrugs was tested in plasma, the association of compounds with artificial emulsion was performed prior to stability experiments and the concentrations of the compounds in the associated emulsion were measured. […] Samples were withdrawn at pre-determined time points, and the reaction was terminated by addition of acetonitrile. […] Half-life of active drug release (t1/2) was calculated by the following equation: t1/2 = −0.693/k. […]

human chylomicrons (CM) = experiment: Ex vivo association with human plasma-derived chylomicrons; assay type: in vitro ADME; conditions: in words; for association with human chylomicrons (CM): 1.755 μM, 37 °C, 1 h, relative to parent drug
Source text: The protocol for preparation of human plasma-derived CM emulsion was approved by the Faculty of Medicine and Health Sciences Research Ethics Committee, Queens Medical Centre, Nottingham University Hospitals (BT12102015 CBS SoP). Healthy male volunteers of 19–40 years old and with body mass index of 18.5–25.0 were enrolled in the study after providing informed consent. The participants were excluded if any medication was used within one week prior to enrolment. On the morning of the study, participants received a high-fat meal (equivalent to a full English breakfast). Between 3 and 4 h following breakfast, 30 mL of blood was collected using heparinised tubes (Vacutainer® Blood Collection Tubes) and centrifuged (800 g, 10 min, 15 °C) to obtain plasma.
CM separation was performed as previously reported with minor modifications. Briefly, KBr (0.57 g) was mixed with 4 mL of plasma to yield density of 1.1 g/mL. PBS with densities of 1.006, 1.019, and 1.063 g/mL were prepared by adding appropriate amounts of KBr. These PBS of different densities were layered on top of the plasma to build density gradient layers in polyallomer ultracentrifuge tubes. The samples were then centrifuged at 268,350 g for 35 min at 15 °C using an ultracentrifuge (SORVALL® TH-641 Rotor, Thermo Fisher Scientific, UK). Following ultracentrifugation, approximately 1 mL of the upper layer containing CM was collected. TG concentration of CM emulsion was assessed using the TG enzymatic kit (Sigma Aldrich, Dorset, UK). TG concentration of the emulsion was adjusted to 100 mg/dL by diluting with PBS of 1.006 g/mL density. The CM emulsion was stored at 4 °C until the association assay (˂24 h).
(§1) The association of the compounds with artificial lipid particle emulsion and human CM was assessed using previously reported methodology with minor modifications. Briefly, 1 mL of artificial lipid particle or CM emulsions (TG concentration 100 mg/dL) was used for the association assay. The emulsion was spiked with stock solutions of tested compounds (in acetonitrile) to give a final concentration of 1.755 μM. The reaction mixtures were incubated at 37 °C for 1 h with magnetic stirring at 300 rpm. Following the incubation, density gradient ultracentrifugation was applied as described above to isolate the artificial lipid particles or CM associated with the tested compounds from the rest of the experimental medium. All experiments were conducted in quintuplicates or above.

[2] = Prodrug conversion assay in postprandial rat lymph; assay type: in vitro ADME; conditions: CM-rich postprandial rat lymph, ex vivo; relative to rat plasma
Method: The prodrugs were tested for their stability and conversion into their corresponding active drug using fasted state simulated intestinal fluid (FaSSIF) with added esterase enzyme activity (20 IU/mL), rat plasma, and postprandial rat lymph. The FaSSIF was prepared as previously described in the literature. The medium was pre-heated to 37 °C prior to the assay for 5 min. The experiment was initiated by spiking stock solutions of prodrugs to give a final concentration of 10 μM of the prodrugs in the medium. When the stability of the artificial emulsion-associated prodrugs was tested in plasma, the association of compounds with artificial emulsion was performed prior to stability experiments and the concentrations of the compounds in the associated emulsion were measured. The emulsion was then spiked to give a concentration of 10 μM of the prodrugs in plasma. The reaction mixtures were incubated at 37 °C and shaken at 200 rpm on a temperature-controlled orbital shaker (Thermo Scientific MaxQ4000, Waltham, MA, USA) for 4 h. Samples were withdrawn at pre-determined time points, and the reaction was terminated by addition of acetonitrile. The samples were then subjected to sample preparation and analysis as described below. […] Half-life of active drug release (t1/2) was calculated by the following equation: t1/2 = −0.693/k. […]

[3] = Prodrug conversion assay in rat plasma; assay type: in vitro ADME
Method: The prodrugs were tested for their stability and conversion into their corresponding active drug using fasted state simulated intestinal fluid (FaSSIF) with added esterase enzyme activity (20 IU/mL), rat plasma, and postprandial rat lymph. The FaSSIF was prepared as previously described in the literature. The medium was pre-heated to 37 °C prior to the assay for 5 min. The experiment was initiated by spiking stock solutions of prodrugs to give a final concentration of 10 μM of the prodrugs in the medium. When the stability of the artificial emulsion-associated prodrugs was tested in plasma, the association of compounds with artificial emulsion was performed prior to stability experiments and the concentrations of the compounds in the associated emulsion were measured. The emulsion was then spiked to give a concentration of 10 μM of the prodrugs in plasma. The reaction mixtures were incubated at 37 °C and shaken at 200 rpm on a temperature-controlled orbital shaker (Thermo Scientific MaxQ4000, Waltham, MA, USA) for 4 h. Samples were withdrawn at pre-determined time points, and the reaction was terminated by addition of acetonitrile. The samples were then subjected to sample preparation and analysis as described below. The natural log percentage of the prodrug concentration was plotted against incubation time, and the slope (k) was obtained from the plot. Half-life of active drug release (t1/2) was calculated by the following equation: t1/2 = −0.693/k. All experiments were conducted in triplicate.

[4] = In vitro association with artificial lipid particle emulsion prepared from Intralipid; assay type: in vitro ADME; conditions: TG 100 mg/dL, 1.755 μM, 37 °C, 1 h, in words, relative to parent drug
Method: To prepare the artificial lipid particle emulsion, Intralipid® 20% (Sigma, Gillingham, UK) was diluted using phosphate buffered saline (PBS) to yield 100 mg/dL of triglyceride (TG) concentration. A TG enzymatic kit (Sigma Aldrich, Dorset, UK) was used to monitor the TG concentration by following manufacturer's instructions.
as §1

[5] = Biodistribution to mesenteric lymph nodes (MLN) and lymph following oral administration in rats; assay type: in vivo; conditions: rat
Method: The protocols for pharmacokinetic and biodistribution experiments in this study were reviewed and approved by the University of Nottingham Ethical Review Committee in accordance with the Animals [Scientific Procedures] Act 1986. Male Sprague Dawley rats (Charles River Laboratories, UK) weighing 350–380 g were used. The animals were housed in the Bio Support Unit, University of Nottingham. Continuous lymph collection was performed according to a protocol approved by the Institutional Animal Care and Use Committee at Rutgers, The State University of New Jersey. Male Sprague Dawley rats (Envigo, Inc., NJ, USA) weighing 300–350 g were used for the continuous lymph collection. Animals were allowed free access to food and water and were acclimatised for at least 6 days prior to any procedures at both institutions in a controlled-temperature environment with 12 h light/dark cycles.
Formulations were prepared as described in the above pharmacokinetic study and were delivered by an oral gavage. Animals were euthanised at pre-determined time points. Blood was collected from the posterior vena cava and lymph samples were taken from the mesenteric lymph duct. MLNs were dissected and collected as previously described. The MLNs were isolated from surrounding tissue with care not to compromise the integrity of the lymph nodes. The MLNs were homogenised (POLYTRON® PT 10–35 GT, Kinematica AG, Luzern, Switzerland) with 10 mg/mL NaF in water (1,2, w/v) on an ice bath prior to sample preparation for HPLC analysis.
A combination of protein precipitation and liquid-liquid extraction was applied to samples prior to HPLC injection. To 100 μL sample, 300 μL of acetonitrile was added for protein precipitation and then 300 μL of pH modifier was added when necessary (Supplementary Material Table S2). […] The organic layer was separated and evaporated under N2 gas. Reconstitution solvent (100 μL) was used as detailed in Supplementary Material Table S2 and 40 μL was injected into the HPLC-UV system. […] Therefore, storage and preparation of all samples were performed within the time frame and conditions of confirmed stability.
The HPLC-UV system consisting of a separation module (Waters Alliance 2695) equipped with a UV detector (Waters 996) was used for analysis. Samples in the autosampler were maintained at 4 °C and the column at 40 °C. The stationary and mobile phases were used as specified in Supplementary Material Table S2. BEX and its prodrugs were detected at 259 nm and RA and its prodrugs at 357 nm.

conversion to BEX in FaSSIF with esterase [1]: too slow to be detected
SMILES: C=C(c1ccc(C(=O)OC(C(C)C)C(C)C)cc1)c1cc2c(cc1C)C(C)(C)CCC2(C)C [prodrug 18]

SMILES: C=C(c1ccc(C(=O)OC)cc1)c1cc2c(cc1C)C(C)(C)CCC2(C)C [prodrug 1]
association with human chylomicrons (CM) (human chylomicrons (CM)): equally high affinity to CM

half-life of active drug release in postprandial lymph [2]: prolonged | conversion of emulsion-associated form of prodrug in rat plasma ([3]; prodrug incorporated into Intralipid lipid particles, 10 μM, relative to free form): delayed conversion | half-life at 10 μM ([3]; rat, plasma, in vitro, 37 °C, free form, read-out: half-life of active drug release in rat plasma): 8 min
SMILES: C=C(c1ccc(C(=O)OCc2oc(=O)oc2C)cc1)c1cc2c(cc1C)C(C)(C)CCC2(C)C [prodrug 25]

SMILES: C=C(c1ccc(C(=O)OCCC)cc1)c1cc2c(cc1C)C(C)(C)CCC2(C)C [prodrug 4]
association with human chylomicrons (CM) (human chylomicrons (CM)): equally high affinity to CM

SMILES: C=C(c1ccc(C(=O)OCCN(C(C)C)C(C)C)cc1)c1cc2c(cc1C)C(C)(C)CCC2(C)C [prodrug 24]
difference in affinity for artificial emulsion versus natural human CM (human chylomicrons (CM)): significant differences

SMILES: CC1=C(/C=C/C(C)=C/C=C/C(C)=C/C(=O)OCc2oc(=O)oc2C)C(C)(C)CCC1 [prodrug 27]
association with artificial emulsion [4]: improved association | association with human chylomicrons (CM) (human chylomicrons (CM)): improved association

concentrations of BEX in intestinal lymphatics (MLNs, lymph) relative to plasma ([5]; BEX analyte, dose equivalent to 10 mg/kg BEX, in words): comparable to that in plasma
SMILES: C=C(c1ccc(C(=O)OC(COC(=O)CCCCCCCCCCCCCCC)COC(=O)CCCCCCCCCCCCCCC)cc1)c1cc2c(cc1C)C(C)(C)CCC2(C)C [prodrug 13]
intact form of prodrug in samples ([5]; plasma, MLN, lymph, any time point): not found in any sample at any time point | conversion to BEX in rat plasma ([3]; in vitro, 10 μM, 37 °C, 4 h, in words): BEX was not released; also recorded: not observed

SMILES: CCOC(=O)/C=C(C)/C=C/C=C(C)/C=C/C1=C(C)CCCC1(C)C [prodrug 26]
association with artificial emulsion [4]: improved association | association with human chylomicrons (CM) (human chylomicrons (CM)): improved association

conversion to BEX in FaSSIF with esterase [1]: too slow to be detected
SMILES: C=C(c1ccc(C(=O)OCCCCCCCC)cc1)c1cc2c(cc1C)C(C)(C)CCC2(C)C [prodrug 9]

— PMC6143478, “Lipophilic activated ester prodrug approach for drug delivery to the intestinal lymphatic system” (Journal of Controlled Release, 2018)
